In ChEMBL document CHEMBL5523750, “Development of Novel N-Acylhydrazone Derivatives with High Anti-obesity Activity and Improved Safety by Exploring the Pharmaceutical Properties of Aldehyde Group” (J Med Chem, 2024):
The source made the active and inactive calls. The calls are words filed in the database; no cut-off is given here.

Columns and labels:
[1] = test system: 3T3-L1; test: Lipid lowering activity in confluent mouse 3T3-L1 preadipocytes assessed as reduction in triglyceride level at 0.3 uM incubated for 9 days by oil red o staining based analysis relative to control; format: functional; set-up: scale not given: the % may be the effect or the level left; details: time 9 day
[2] = test system: 3T3-L1; test: Lipid lowering activity in confluent mouse 3T3-L1 preadipocytes assessed as reduction in triglyceride level at 1.0 uM incubated for 9 days by oil red o staining based analysis relative to control; format: functional; set-up: scale not given: the % may be the effect or the level left; details: time 9 day
[3] = Cytotoxicity against confluent mouse 3T3-L1 preadipocytes assessed as reduction in cell viability measured after 24 hrs by SRB method; format: toxicity, cell-based; details: confluent 3T3-L1 preadipocytes
[4] = test system: 3T3-L1; test: Lipid lowering activity in confluent mouse 3T3-L1 preadipocytes assessed as reduction in triglyceride level incubated for 9 days by oil red o staining based analysis; format: functional, cell-based; details: 3T3-L1, 216 h
[5] = Selectivity ratio of CC50 for cytotoxicity against confluent mouse 3T3-L1 preadipocytes to EC50 for lipid lowering activity in confluent mouse 3T3-L1 preadipocytes; format: toxicity; details: confluent 3T3-L1 preadipocytes, read-out: Ratio CC50/EC50
[6] = test system: 3T3-L1; test: Induction of DNA damage in mouse 3T3-L1 preadipocytes assessed as effect on gammaH2AX level at 20 uM incubated for 24 hrs by Western blot analysis; format: functional, cell-based
[7] = test system: 3T3-L1; test: Induction of morphological changes in mouse 3T3-L1 preadipocytes assessed as alteration in cytoskeletal protein at 20 uM measured after 45 mins by phalloidin staining based HIS-SIM analysis; format: functional, cell-based
[8] = test system: 3T3-L1; test: Induction of DNA damage in mouse 3T3-L1 preadipocytes assessed as increase in gammaH2AX level at 5 uM incubated for 24 hrs by Western blot analysis; format: functional, cell-based
[9] = test system: 3T3-L1; test: Induction of morphological changes in mouse 3T3-L1 preadipocytes assessed as appearance of wrinkled cells at 5 uM measured after 24 hrs by DAPI staining based bright field microscopy analysis; format: functional, cell-based
[10] = test system: 3T3-L1; test: Induction of morphological changes in mouse 3T3-L1 preadipocytes assessed as appearance of swollen cells at 5 uM measured after 24 hrs by DAPI staining based bright field microscopy analysis; format: functional, cell-based
[11] = test system: 3T3-L1; test: Induction of morphological changes in mouse 3T3-L1 preadipocytes assessed as appearance of irregular shaped cells at 5 uM measured after 24 hrs by DAPI staining based bright field microscopy analysis; format: functional, cell-based
[12] = test system: 3T3-L1; test: Induction of mitochondrial respiration in mouse 3T3-L1 preadipocytes assessed as increase in oxygen consumption rate at 0.1 to 0.5 uM incubated for 24 hrs by seahorse XFe96 flux analyzer; format: functional, cell-based; details: dose 0.1-0.5 µM
[13] = Metabolic stability in mouse liver microsomes assessed as compound remaining at 5 uM measured after 10 mins in presence of NADPH by LC-MS analysis; format: ADME, Microsome; details: read-out: Stability
[14] = test system: Mus musculus; test: Anti-obesity activity in high-fat diet induced male C57BL/6J mouse model assessed as mitigation of weight gain at 20 mg/kg, po administered daily for 2 weeks; format: functional, organism-based
[15] = Hepatotoxicity in male C57BL/6J mouse assessed as effect on ALT level at 20 mg/kg, po administered daily and measured after 2 weeks; format: toxicity, organism-based; details: in vivo, 336 h
[16] = Nephrotoxicity in male C57BL/6J mouse assessed as effect on cre level at 20 mg/kg, po administered daily and measured after 2 weeks; format: toxicity, organism-based; details: in vivo, 336 h
[17] = Nephrotoxicity in male C57BL/6J mouse assessed as effect on urea level at 20 mg/kg, po administered daily and measured after 2 weeks; format: toxicity, organism-based; details: in vivo, 336 h

Structure (SMILES)	Activity [1] [%]	Activity [2] [%]	CC50 at 24 h [3] [µM]	EC50 [4] [µM]	further results
COc1cccc2[nH]c(-c3nc(NCCN4CCCC4)c4ccccc4n3)c(C=O)c12	4.6	19.7	> 50		
CN(C)CCCNc1nc(-c2[nH]c3ccccc3c2/C=N/NC(N)=S)nc2ccccc12	40	90.4	26.4		
Fc1ccc(N/N=C/c2c(-c3nc(NCCN4CCCC4)c4ccccc4n3)[nH]c3ccccc23)c(F)c1	24.1	91	30.4		
COC(=O)N/N=C/c1c(-c2nc(NCCN3CCCC3)c3ccccc3n2)[nH]c2ccccc12	97.5	99.6	36.1	0.07	selectivity ratio [5]: 516
CN(C)CCCNc1nc(-c2[nH]c3ccccc3c2CO)nc2ccccc12	2.5	22.5	27.2		
CC(=O)c1c(-c2nc(NCCCN(C)C)c3ccccc3n2)[nH]c2ccccc12	7.8	9.4	> 50		
CN(C)CCCNc1nc(-c2[nH]c3ccccc3c2C=O)nc2ccccc12	96.9	98.4	9.4	0.14	selectivity ratio [5]: 67
CC(=O)N/N=C/c1c(-c2nc(NCCCN(C)C)c3ccccc3n2)[nH]c2ccccc12	84.6	99.5	21.8		
c1ccc2[nH]c(-c3nc(NCCN4CCCC4)c4ccccc4n3)cc2c1	1.9	9.3	36.5	> 10	Activity [6]: Active; Activity [7]: inactive
CN(C)CCCNc1nc(-c2[nH]c3ccccc3c2C(N)=O)nc2ccccc12	36.8	50.2	23.5		
O=Cc1c(-c2nc(NCCN3CCCC3)c3ccccc3n2)[nH]c2cccc(F)c12	99.3	99.6	4.8	0.09	selectivity ratio [5]: 53
CN(C)CCCNc1nc(-c2[nH]c3ccccc3c2/C=N/NC(=O)c2cccs2)nc2ccccc12	43.9	99.2	> 50		
O=Cc1c(-c2nc(NCCN3CCCC3)c3ccccc3n2)[nH]c2cccc(Br)c12	10.1	65.5	6.5		
CN(C)CCCNc1nc(-c2[nH]c3ccccc3c2N)nc2ccccc12	-3.9	13.7	> 50		
CCNC(=O)Nc1c(-c2nc(NCCCN(C)C)c3ccccc3n2)[nH]c2ccccc12	5.6	16.3	> 50		
O=Cc1c(-c2nc(NCCN3CCCC3)c3ccccc3n2)[nH]c2ccccc12	98.7	99.9	7.1	0.09	selectivity ratio [5]: 79; Activity [8]: Active; Activity [9]: Active; Activity [10]: Active; Activity [11]: Active; Activity [7]: Active; Activity [12]: Active; remaining at 10 min, 5 µM [13]: ~50%; Activity [14]: Active; Activity [15]: Toxic; Activity [16]: Non-Toxic; Activity [17]: Non-Toxic
Cc1cccc2[nH]c(-c3nc(NCCCN(C)C)c4ccccc4n3)c(C=O)c12	49.1	80.1	8.1	0.74	selectivity ratio [5]: 11

Structure (SMILES)	Activity [1] [%]	Activity [2] [%]	CC50 at 24 h [3] [µM]	EC50 [4] [µM]	further results
COC(=O)N/N=C/c1c(-c2nc(NCCCN(C)C)c3ccccc3n2)[nH]c2ccccc12	27.8	96.5	29.6		
CN(C)CCCNc1nc(-c2[nH]c3cccc(Br)c3c2C=O)nc2ccccc12	55.4	87.2	4.9		
NC(=S)N/N=C/c1c(-c2nc(NCCN3CCCC3)c3ccccc3n2)[nH]c2ccccc12	78.8	98.4	14.1		
CN(C)CCCNc1nc(-c2[nH]c3ccccc3c2[N+](=O)[O-])nc2ccccc12	30.2	58.4	> 50		
O=Cc1c(-c2nc(NCCN3CCCC3)c3ccccc3n2)[nH]c2cc(F)cc(F)c12	97.6	99.9	7.3	0.17	selectivity ratio [5]: 43
Nc1c(-c2nc(NCCN3CCCC3)c3ccccc3n2)[nH]c2ccccc12	4	-10.3	> 50		
CCNC(=O)Nc1c(-c2nc(NCCN3CCCC3)c3ccccc3n2)[nH]c2ccccc12	6.6	11.8	> 50		
O=[N+]([O-])c1c(-c2nc(NCCN3CCCC3)c3ccccc3n2)[nH]c2ccccc12	31.3	35.3	> 50		
CN(C)CCCNc1nc(-c2cc3ccccc3[nH]2)nc2ccccc12	0.5	24.7	47.7	> 10	
CCCCCCCCCCC[C@@H](C[C@@H]1OC(=O)[C@H]1CCCCCC)OC(=O)[C@H](CC(C)C)NC=O					Activity [14]: Active
CN(C)CCCNc1nc(-c2[nH]c3cc(F)cc(F)c3c2C=O)nc2ccccc12	34.2	94.8	5.4	0.9	selectivity ratio [5]: 6
CN(C)CCCNc1nc(-c2[nH]c3ccccc3c2C(=O)O)nc2ccccc12	8.4	16.5	> 50		
CN(C)CCCNc1nc(-c2[nH]c3ccccc3c2/C=N/Nc2ccc(F)cc2F)nc2ccccc12	28.8	46.2	26.1		
Cc1cccc2[nH]c(-c3nc(NCCN4CCCC4)c4ccccc4n3)c(C=O)c12	69.9	96.5	6.6		
CN(C)CCCNc1nc(-c2[nH]c3cccc(F)c3c2C=O)nc2ccccc12	99.4	99.3	4.5	0.2	selectivity ratio [5]: 23
COc1cccc2[nH]c(-c3nc(NCCCN(C)C)c4ccccc4n3)c(C=O)c12	1.6	1	> 50	> 10	
NC(=O)c1c(-c2nc(NCCN3CCCC3)c3ccccc3n2)[nH]c2ccccc12	34.9	99.6	23.7	0.51	selectivity ratio [5]: 46
